The results in this text go back to publication PMC12397248, “Proanthocyanidins inhibit CYP1B1 through mixed-type kinetics and stable binding in molecular dynamics simulations” (Scientific Reports, 2025).

The target of data set [1] is T1, Cytochrome P450 1B1 (CYP1B1) (Homo sapiens, UniProt Q16678).
T1 sequence (Q16678 1-543): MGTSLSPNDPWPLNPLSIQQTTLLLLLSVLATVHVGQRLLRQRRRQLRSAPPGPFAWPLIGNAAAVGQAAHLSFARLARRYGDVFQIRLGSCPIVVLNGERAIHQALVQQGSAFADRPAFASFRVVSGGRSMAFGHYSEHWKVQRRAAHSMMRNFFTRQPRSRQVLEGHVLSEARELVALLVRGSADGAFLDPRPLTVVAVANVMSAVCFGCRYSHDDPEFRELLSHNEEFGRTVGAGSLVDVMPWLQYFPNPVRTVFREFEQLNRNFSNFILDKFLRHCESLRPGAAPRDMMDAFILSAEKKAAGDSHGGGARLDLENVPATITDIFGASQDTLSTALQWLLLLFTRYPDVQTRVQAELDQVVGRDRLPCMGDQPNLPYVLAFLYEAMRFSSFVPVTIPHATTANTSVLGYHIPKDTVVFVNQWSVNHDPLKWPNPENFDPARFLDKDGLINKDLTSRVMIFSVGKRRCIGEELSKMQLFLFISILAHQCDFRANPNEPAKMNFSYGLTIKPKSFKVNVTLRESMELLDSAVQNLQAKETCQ
As to the kind of experiment: recombinant human CYP1B1 ethoxyresorufin O-deethylation fluorescence assay; Michaelis-Menten and Lineweaver-Burk kinetics. It counts as biochemical.

Substrate in data set [2]: CCOc1ccc2nc3ccc(=O)cc-3oc2c1
As to the kind of experiment: Michaelis-Menten kinetics of O-deethylation by recombinant CYP1B1 (Km). The format is biochemical, Homo sapiens. The settings on record: heme; NADPH.

The IC50 is the concentration that inhibits the measured activity by half. With proanthocyanidin [PA], in data set [1], the IC50 is 2530 ± 10 nM.

B1: Cytochrome P450 1B1 (CYP1B1) (Homo sapiens) (protein)
chain: T1 sequence (Q16678 1-543)
In general, Km refers to the concentration of substrate that gives half-maximal velocity. As to B1, the Km in data set [2] was 236 ± 74 µM.
